# Experimental data as given in PubChem BioAssay AID330 (DTP/NCI, 2004).
# Values joined by “and” are separate entries in the source; they are usually repeats but may differ in a detail not shown here. Equal entries are not always repeated. Inconclusive results and toxic doses are left out.
# Tested on: P388 leukemia ip, CD2F1 mice, survival T/C
# Assay: NCI In Vivo Anticancer Drug Screen. Data for tumor model P388 Leukemia (intraperitoneal) in CD2F1 (CDF1) mice
# Details: endpoint: median survival time, higher = longer survival
# In short: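 Mice carrying the transplanted tumor received test compound or vehicle. Survival was recorded in each group, and the value is the treated-group measurement divided by that of the vehicle-treated control group.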
# [1] = dose: 25.0 mg/kg/injection, schedule: Q01DX005 (ip), vehicle: saline with Tween-80
# [2] = dose: 50.0 mg/kg/injection, schedule: Q01DX005 (ip), vehicle: saline with Tween-80
# [3] = dose: 100.0 mg/kg/injection, schedule: Q04DX002 (ip), vehicle: saline with Tween-80
# [4] = dose: 50.0 mg/kg/injection, schedule: Q01DX005 (ip), vehicle: Klucel (hydroxypropylcellulose) (HPC)
# [5] = dose: 100.0 mg/kg/injection, schedule: Q01DX005 (ip), vehicle: Klucel (hydroxypropylcellulose) (HPC)
# [6] = dose: 200.0 mg/kg/injection, schedule: Q01DX005 (ip), vehicle: Klucel (hydroxypropylcellulose) (HPC)
# [7] = dose: 60.0 mg/kg/injection, schedule: Q01DX005 (ip), vehicle: saline with Tween-80
# [8] = dose: 120.0 mg/kg/injection, schedule: Q01DX005 (ip), vehicle: saline with Tween-80
# [9] = dose: 240.0 mg/kg/injection, schedule: Q01DX005 (ip), vehicle: saline with Tween-80
# [10] = dose: 50.0 mg/kg/injection, schedule: Q01DX009 (ip), vehicle: saline with Tween-80
# [11] = dose: 100.0 mg/kg/injection, schedule: Q01DX009 (ip), vehicle: saline with Tween-80
# [12] = dose: 200.0 mg/kg/injection, schedule: Q01DX009 (ip), vehicle: saline with Tween-80
# [13] = dose: 50.0 mg/kg/injection, schedule: Q01DX009 (ip), vehicle: Klucel (hydroxypropylcellulose) (HPC)
# [14] = dose: 100.0 mg/kg/injection, schedule: Q01DX009 (ip), vehicle: Klucel (hydroxypropylcellulose) (HPC)
# [15] = dose: 200.0 mg/kg/injection, schedule: Q01DX009 (ip), vehicle: Klucel (hydroxypropylcellulose) (HPC)
# [16] = dose: 25.0 mg/kg/injection, schedule: Q04DX003 (ip), vehicle: saline with Tween-80
# [17] = dose: 100.0 mg/kg/injection, schedule: Q04DX002 (ip), vehicle: Klucel (hydroxypropylcellulose) (HPC)
# [18] = dose: 200.0 mg/kg/injection, schedule: Q04DX002 (ip), vehicle: Klucel (hydroxypropylcellulose) (HPC)
# [19] = dose: 400.0 mg/kg/injection, schedule: Q04DX002 (ip), vehicle: Klucel (hydroxypropylcellulose) (HPC)
smiles,measurement,setting,value
CCCCCCC1NC(CCCCC)N2C(CCCCC)N12 (configuration not stated),T/C,"dose: 50.0 mg/kg/injection, schedule: Q01DX001 (ip), vehicle: Klucel (hydroxypropylcellulose) (HPC)",101 % of control
same,T/C,"dose: 100.0 mg/kg/injection, schedule: Q01DX001 (ip), vehicle: Klucel (hydroxypropylcellulose) (HPC)",103 % of control
same,T/C,"dose: 200.0 mg/kg/injection, schedule: Q01DX001 (ip), vehicle: Klucel (hydroxypropylcellulose) (HPC)",95 % of control
Clc1ccc(CCNCc2ccc(Cl)cc2)cc1,T/C,"dose: 12.5 mg/kg/injection, schedule: Q01DX005 (ip), vehicle: saline with Tween-80",87 % of control
same,T/C,[1],97 % of control
same,T/C,[2],106 % of control and 97 % of control
C[C@@H]1C(=O)O[C@H]2[C@H]1CC[C@@]1(C)C=C(Cl)C(=O)[C@@H](C)[C@H]21,T/C,"dose: 50.0 mg/kg/injection, schedule: Q04DX002 (ip), vehicle: saline with Tween-80",100 % of control
same,T/C,[3],117 % of control
CC1CN(C(=O)/C=C/C(=O)OC2CCCCC2)CCN1C(=O)/C=C/C(=O)OC1CCCCC1 (configuration not stated),T/C,[4],100 % of control
same,T/C,[5],100 % of control
same,T/C,[6],98 % of control
NC1=C(O)C(=O)C(c2cccc3ccccc23)O1 (configuration not stated),T/C,[7],98 % of control
same,T/C,[8],93 % of control
same,T/C,[9],88 % of control
CC/C(=N\NC(=S)SC)c1ccccc1,T/C,[10],91 % of control
same,T/C,[11],100 % of control
same,T/C,[12],97 % of control
CS(=O)(=O)Oc1ccc([N+](=O)[O-])cc1,T/C,[13],98 % of control
same,T/C,[14],107 % of control
same,T/C,[15],114 % of control
O=[N+]([O-])c1ccccc1NN=NCCF,T/C,"dose: 3.12 mg/kg/injection, schedule: Q01DX005 (ip), vehicle: Klucel (hydroxypropylcellulose) (HPC)",100 % of control
same,T/C,"dose: 6.25 mg/kg/injection, schedule: Q01DX005 (ip), vehicle: Klucel (hydroxypropylcellulose) (HPC)",100 % of control
same,T/C,"dose: 12.5 mg/kg/injection, schedule: Q01DX005 (ip), vehicle: Klucel (hydroxypropylcellulose) (HPC)",109 % of control
COc1cc(C2C(C(C)=O)=C(C)Oc3cc4c(cc32)OCO4)cc(OC)c1OC (configuration not stated),T/C,"dose: 30.0 mg/kg/injection, schedule: Q01DX005 (ip), vehicle: saline with Tween-80",89 % of control
same,T/C,[7],87 % of control and 89 % of control
same,T/C,[8],90 % of control
same,T/C,[9],87 % of control
COc1cccc2c1C(=O)c1c(O)c3c(c(O)c1C2=O)C[C@@](O)(C(=O)CO)CC3OC1CC(O)C(O)C(C)O1 (some centres not stated),T/C,"dose: 6.25 mg/kg/injection, schedule: Q04DX003 (ip), vehicle: saline",122 % of control
same,T/C,"dose: 12.5 mg/kg/injection, schedule: Q04DX003 (ip), vehicle: saline",165 % of control
same,T/C,"dose: 25.0 mg/kg/injection, schedule: Q04DX003 (ip), vehicle: saline",183 % of control
same,T/C,"dose: 50.0 mg/kg/injection, schedule: Q04DX003 (ip), vehicle: saline",209 % of control
CN1P(=N)(N)N=P(c2ccccc2)(c2ccccc2)N=P1(c1ccccc1)c1ccccc1 (configuration not stated),T/C,"dose: 12.5 mg/kg/injection, schedule: Q01DX009 (ip), vehicle: Klucel (hydroxypropylcellulose) (HPC)",99 % of control and 113 % of control and 121 % of control
same,T/C,"dose: 25.0 mg/kg/injection, schedule: Q01DX009 (ip), vehicle: Klucel (hydroxypropylcellulose) (HPC)",108 % of control and 115 % of control and 93 % of control
same,T/C,[13],123 % of control and 88 % of control
C/C(N)=C\C#N,T/C,[16],100 % of control
same,T/C,"dose: 50.0 mg/kg/injection, schedule: Q04DX003 (ip), vehicle: saline with Tween-80",101 % of control
same,T/C,"dose: 100.0 mg/kg/injection, schedule: Q04DX003 (ip), vehicle: saline with Tween-80",98 % of control and 97 % of control
O=C(/C=C/c1c(-c2ccccc2)[nH]c2ccccc12)c1cccc([N+](=O)[O-])c1,T/C,[7],98 % of control
same,T/C,[8],90 % of control
same,T/C,[9],90 % of control
CNC(=O)OCCC(OC(=O)NC)C1CCC2C3CC=C4CC(OC(=O)c5ccccc5)CCC4(C)C3CCC12C (configuration not stated),T/C,[4],103 % of control
same,T/C,[5],99 % of control
same,T/C,[6],92 % of control
CS(=O)(=O)C(CCC(=O)c1ccc2ccccc2c1)C(=O)c1ccccc1 (configuration not stated),T/C,[4],88 % of control
same,T/C,[5],89 % of control
same,T/C,[6],92 % of control
COc1cccc(C2c3cc4c(cc3OC(N3CCCC3)C2C)OCO4)c1O (configuration not stated),T/C,[7],103 % of control
same,T/C,[8],90 % of control
same,T/C,[9],88 % of control
CCC(=O)N(C)C(C)C(=O)OC1CC(=O)N(C)c2cc(cc(OC)c2Cl)CC(CO)=C/C=C/C(OC)C2(O)CC(OC(=O)N2)C(C)C2OC12C (configuration not stated),T/C,"dose: 50.0 micrograms/kg/injection, schedule: Q01DX009 (ip), vehicle: saline + alcohol",124 % of control
same,T/C,"dose: 100.0 micrograms/kg/injection, schedule: Q01DX009 (ip), vehicle: saline + alcohol",158 % of control
same,T/C,"dose: 400.0 micrograms/kg/injection, schedule: Q01DX009 (ip), vehicle: saline + alcohol",150 % of control and 158 % of control
same,T/C,"dose: 800.0 micrograms/kg/injection, schedule: Q01DX009 (ip), vehicle: saline + alcohol",155 % of control
c1cc2c(cc1NC1=NCCO1)CCC2,T/C,"dose: 6.25 mg/kg/injection, schedule: Q04DX003 (ip), vehicle: saline with Tween-80",100 % of control
same,T/C,"dose: 12.5 mg/kg/injection, schedule: Q04DX003 (ip), vehicle: saline with Tween-80",100 % of control
same,T/C,[16],100 % of control
O=C(O)/C=C(\Br)C(=O)O,T/C,"dose: 100.0 mg/kg/injection, schedule: Q04DX002 (ip), vehicle: saline",95 % of control
same,T/C,"dose: 200.0 mg/kg/injection, schedule: Q04DX002 (ip), vehicle: saline",90 % of control
[N-]=[N+]=Nc1ccccc1C(=O)Nc1ccccc1C(N)=O,T/C,[17],101 % of control
same,T/C,[18],104 % of control
same,T/C,[19],104 % of control
COc1ccc(CC2=CC(=O)C(=O)C=C2C)cc1,T/C,"dose: 2.5 mg/kg/injection, schedule: Q01DX009 (ip), vehicle: saline + alcohol",101 % of control
same,T/C,"dose: 5.0 mg/kg/injection, schedule: Q01DX009 (ip), vehicle: saline + alcohol",100 % of control
same,T/C,"dose: 10.0 mg/kg/injection, schedule: Q01DX009 (ip), vehicle: saline + alcohol",102 % of control
CCOC(=O)C1(O)C(=O)ON=C1c1ccccc1 (configuration not stated),T/C,[4],100 % of control
same,T/C,[5],104 % of control
same,T/C,[6],107 % of control
Cc1ccc(S(=O)(=O)NC(CC(=O)OCc2ccccc2)C(=O)OCc2ccccc2)cc1 (configuration not stated),T/C,[10],101 % of control
same,T/C,[11],86 % of control
same,T/C,[12],90 % of control
Cc1ccc2c(c1)C(=O)c1cc3c(cc1C2=O)OCO3,T/C,[7],87 % of control
same,T/C,[8],91 % of control
same,T/C,[9],89 % of control and 91 % of control
CCCCc1c(OC(=O)N(C)C)c(C#N)c2n(C)c3ccccc3n2c1=O,T/C,[7],101 % of control and 86 % of control
same,T/C,[8],95 % of control
same,T/C,[9],93 % of control and 96 % of control
CC(C)N(CCO)CC(O)Cn1cnc2ncnc(N)c21 (configuration not stated),T/C,"dose: 60.0 mg/kg/injection, schedule: Q01DX005 (ip), vehicle: saline",94 % of control
same,T/C,"dose: 120.0 mg/kg/injection, schedule: Q01DX005 (ip), vehicle: saline",97 % of control
same,T/C,"dose: 240.0 mg/kg/injection, schedule: Q01DX005 (ip), vehicle: saline",94 % of control
COC(=O)Cc1onc(-c2ccccc2)c1[N+](=O)[O-],T/C,[7],101 % of control
same,T/C,[8],101 % of control
same,T/C,[9],94 % of control
Cc1nnc(Cc2ccccc2)c2n[nH]c(C)c12,T/C,[13],98 % of control
same,T/C,[14],103 % of control
same,T/C,[15],95 % of control
CC/C(C)=N/SC(c1ccccc1)(c1ccccc1)c1ccccc1,T/C,[3],101 % of control
same,T/C,"dose: 200.0 mg/kg/injection, schedule: Q04DX002 (ip), vehicle: saline with Tween-80",91 % of control
same,T/C,"dose: 400.0 mg/kg/injection, schedule: Q04DX002 (ip), vehicle: saline with Tween-80",89 % of control
Cc1nc2ccccc2c2c1C(=O)c1ccccc1-2,T/C,[17],96 % of control
same,T/C,[18],89 % of control
same,T/C,[19],89 % of control
N#CC(c1ccccc1)c1cnccn1 (configuration not stated),T/C,[1],102 % of control
same,T/C,[2],100 % of control
NC1(C(=O)O)CCCC1.O.[Cl][Au],T/C,[7],110 % of control
CCOCC[Se]c1ccccc1,T/C,"dose: 50.0 mg/kg/injection, schedule: Q01DX009 (ip), vehicle: saline",92 % of control
same,T/C,"dose: 100.0 mg/kg/injection, schedule: Q01DX009 (ip), vehicle: saline",92 % of control
same,T/C,"dose: 200.0 mg/kg/injection, schedule: Q01DX009 (ip), vehicle: saline",91 % of control
